In ChEMBL document CHEMBL1152602, “A new therapeutic approach in Parkinson's disease: some novel quinazoline derivatives as dual selective phosphodiesterase 1 inhibitors and anti-inflammatory agents” (Bioorg Med Chem, 2009) one finds inhibition in vivo, IC50 and Activity data, which are given here for 30 compounds.

The subject of series [1] is Rattus norvegicus. Kind of series: Antiinflammatory activity in Sprague-Dawley rat assessed as inhibition of carrageenan-induced paw edema at 50 mg/kg, ip treated 60 mins before carrageenan challenge measured after 180 mins. The conditions noted are these: route intraperitoneal. It counts as functional. (Carrageenan injected into the paw causes an acute inflammation.)

The subject of series [2] is Rattus norvegicus. The series can be described thus: Antiinflammatory activity in Sprague-Dawley rat assessed as inhibition of carrageenan-induced paw edema at 50 mg/kg, po treated 60 mins before carrageenan challenge measured after 180 mins. The class given is functional.
Series [3] is described as follows: Inhibition of PDE1.
Series [4] has as its system Rattus norvegicus. Kind of series: Antiinflammatory activity in Sprague-Dawley rat assessed as inhibition of carrageenan-induced paw edema at 50 mg/kg, ip treated 60 mins before carrageenan challenge measured after 90 mins. The class given is functional. Particulars: route intraperitoneal.
The subject of series [5] is Rattus norvegicus. Kind of series: Antiinflammatory activity in Sprague-Dawley rat assessed as inhibition of carrageenan-induced paw edema at 50 mg/kg, po treated 60 mins before carrageenan challenge measured after 90 mins. It counts as functional.
Series [6] relates to Rattus norvegicus. Kind of series: Toxicity in Sprague-Dawley rat assessed as gastrointestinal ulceration at 200 mg/kg, po once daily for 5 days. It counts as organism-based. Also on record: dose 200 mg/kg, route oral. Particulars: in vivo, 120 h.

With `O=c1c2cc(Br)ccc2nc2c3c4c(sc3ncn12)CCCC4`, the inhibition in vivo at 50 mg/kg in series [1] was 71%; in series [2], 68%; in series [4], 63%; in series [5], 60%. Further, the IC50 in series [3] turned out to be 128 µM.

Take `O=c1c2ccccc2nc2c3c(-c4ccc(Cl)cc4)csc3ncn12`: the inhibition in vivo at 50 mg/kg in series [1] is 57%; in series [2], 53%; in series [4] it was 42%; in series [5], 37%. Further, the IC50 in series [3] stood at 124 µM. Also, the Activity entry in series [6] is on record as “Non-toxic”.

Turning to `Cc1sc2ncn3c(=O)c4cc(Br)cc(Br)c4nc3c2c1C`, the inhibition in vivo at 50 mg/kg in series [1] was 27%; in series [2], 22%; in series [4], 11%; in series [5], 10%. Also, half-maximal inhibition in series [3] (IC50) required 95.7 µM.

Regarding `COc1ccc(-c2csc3ncn4c(=O)c5cc(Br)ccc5nc4c23)cc1`, the inhibition in vivo at 50 mg/kg in series [1] came out at 70%; in series [2], 59%; in series [4], 53%; in series [5], 50%. For the same compound, the half-maximal inhibitory concentration (IC50) in series [3] is 82.2 µM.

Consider `COc1ccc(-c2cc(-c3cccc([N+](=O)[O-])c3)c3c(ncn4c(=O)c5cc(Br)cc(Br)c5nc34)n2)cc1`, for which the inhibition in vivo at 50 mg/kg amounted to 78% in series [1], 74% in series [2], 68% in series [4] and 65% in series [5]. This compound registered a concentration for half-maximal inhibition (IC50) in series [3] of 72 µM. The Activity result in series [6] is given as “Non-toxic”.

In the case of `Cc1ccc(-c2cc(-c3ccc(Cl)cc3)c3c(ncn4c(=O)c5cc(Br)ccc5nc34)n2)cc1`, the inhibition in vivo at 50 mg/kg in series [1] stood at 89%; in series [2] it was 87%; in series [4], 82%; in series [5], 80%. The compound further displayed a half-maximal inhibitory concentration (IC50) in series [3] of 66.4 µM.

In the case of `Cc1ccc(-c2cc(-c3ccccc3)nc3ncn4c(=O)c5cc(Br)cc(Br)c5nc4c23)cc1`, the inhibition in vivo at 50 mg/kg in series [1] amounted to 72%; in series [2], 70%; in series [4], 62%; in series [5], 59%. In series [3], this compound gave an IC50 of 52.4 µM. Also, in series [6], the Activity entry is reported as “Non-toxic”.

Turning to `Cc1sc2ncn3c(=O)c4cc(Br)ccc4nc3c2c1C`, the inhibition in vivo at 50 mg/kg in series [1] worked out at 76%; in series [2], 71%; in series [4], 66%; in series [5], 63%. Inhibition in series [3] was half-maximal at 146 µM (IC50).

For the compound `COc1ccc(-c2cc(-c3ccccc3)nc3ncn4c(=O)c5ccccc5nc4c23)cc1`, the inhibition in vivo at 50 mg/kg in series [1] is 22%; in series [2], 18%; in series [4], 8%; in series [5], 7%. Further, the IC50 in series [3] is 72.1 µM.

On to `COc1ccc(-c2cc(-c3cccc([N+](=O)[O-])c3)c3c(ncn4c(=O)c5ccccc5nc34)n2)cc1`, for which the inhibition in vivo at 50 mg/kg in series [1] is 16%; in series [2], 9%; in series [4], 3%; in series [5], 3%. Moreover, half-maximal inhibition in series [3] (IC50) required 39.9 µM.

For `Cc1ccc(-c2cc(-c3ccccc3)nc3ncn4c(=O)c5ccccc5nc4c23)cc1`, the inhibition in vivo at 50 mg/kg came to 20% in series [1], 15% in series [2], 8% in series [4] and 8% in series [5]. In series [3], this compound registered an IC50 of 91.8 µM.

Regarding `COc1ccc(-c2cc(-c3ccccc3)nc3ncn4c(=O)c5cc(Br)ccc5nc4c23)cc1`, the inhibition in vivo at 50 mg/kg in series [1] was found to be 44%; in series [2], 41%; in series [4], 28%; in series [5], 26%. 76.6 µM corresponded to half-maximal inhibition in series [3] (IC50).

`O=c1c2ccccc2nc2c3c(-c4ccccc4)cc(-c4ccc(Cl)cc4)nc3ncn12`: the inhibition in vivo at 50 mg/kg was 34% in series [1], 26% in series [2], 18% in series [4] and 18% in series [5]. Also, the IC50 in series [3] was determined as 80.6 µM.

For `CC(C)Cn1c(=O)n(C)c(=O)c2nc[nH]c21` [ISOBUTYLMETHYLXANTHINE], in series [3], the IC50 worked out at 24.7 µM.

Regarding `Cc1ccc(-c2cc(-c3ccc(Cl)cc3)c3c(ncn4c(=O)c5cc(Br)cc(Br)c5nc34)n2)cc1`, the inhibition in vivo at 50 mg/kg was 83% in series [1], 80% in series [2], 78% in series [4] and 72% in series [5]. Also, in series [3], the midpoint of inhibition, the IC50, lay at 57.6 µM.

In the case of `O=c1c2cc(Br)cc(Br)c2nc2c3c(-c4ccc(Cl)cc4)csc3ncn12`, the inhibition in vivo at 50 mg/kg was determined as 17% in series [1], 10% in series [2], 2% in series [4] and 2% in series [5]. For the same compound, in series [3], half-maximal inhibition (IC50) required 83.5 µM.

As to `O=c1c2cc(Br)ccc2nc2c3c(-c4ccc(Cl)cc4)csc3ncn12`, the inhibition in vivo at 50 mg/kg came to 50% in series [1], 44% in series [2], 29% in series [4] and 26% in series [5]. Also, in series [3], the IC50 is 90.5 µM.

Regarding `COc1ccc(-c2cc(-c3cccc([N+](=O)[O-])c3)c3c(ncn4c(=O)c5cc(Br)ccc5nc34)n2)cc1`, the inhibition in vivo at 50 mg/kg in series [1] was 30%; in series [2], 25%; in series [4], 13%; in series [5], 12%. Also, the IC50 in series [3] came out at 101 µM.

Turning to `Cc1ccc(-c2csc3ncn4c(=O)c5cc(Br)ccc5nc4c23)cc1`, the inhibition in vivo at 50 mg/kg in series [1] is 56%; in series [2], 52%; in series [4] it was 42%; in series [5] it was 40%. Besides, 85.3 µM corresponded to half-maximal inhibition in series [3] (IC50).

Consider `Cc1ccc(-c2cc(Cc3ccco3)c3c(ncn4c(=O)c5cc(Br)ccc5nc34)n2)cc1`, for which the inhibition in vivo at 50 mg/kg came out at 41% in series [1], 37% in series [2], 24% in series [4] and 13% in series [5]. The same compound yielded an IC50 in series [3] of 72.5 µM.

As for `COc1ccc(-c2csc3ncn4c(=O)c5cc(Br)cc(Br)c5nc4c23)cc1`, the inhibition in vivo at 50 mg/kg in series [1] came out at 31%; in series [2], 29%; in series [4] it was 16%; in series [5], 15%. The same compound displayed an IC50 in series [3] of 60.5 µM.

Consider `O=c1c2cc(Br)cc(Br)c2nc2c3c(-c4ccc([N+](=O)[O-])cc4)cc(-c4ccc([N+](=O)[O-])cc4)nc3ncn12`, for which the inhibition in vivo at 50 mg/kg in series [1] was 56%; in series [2], 54%; in series [4], 47%; in series [5], 46%. For the same compound, half-maximal inhibition in series [3] (IC50) required 72.5 µM.

`COc1ccc2c(c1)c(CC(=O)O)c(C)n2C(=O)c1ccc(Cl)cc1` [INDOMETHACIN]: the inhibition in vivo at 50 mg/kg was 83% in series [1], 79% in series [2], 76% in series [4] and 72% in series [5]. Besides, the Activity entry in series [6] is reported as “Toxic”.

For `Cc1ccc(-c2cc(-c3ccc(Cl)cc3)c3c(ncn4c(=O)c5ccccc5nc34)n2)cc1`, the inhibition in vivo at 50 mg/kg was 53% in series [1], 49% in series [2], 38% in series [4] and 37% in series [5]. For the same compound, in series [3], half-maximal inhibition (IC50) was put at 98.2 µM.

As to `Cc1ccc(-c2cc(Cc3ccco3)c3c(ncn4c(=O)c5ccccc5nc34)n2)cc1`, the inhibition in vivo at 50 mg/kg in series [1] was 20%; in series [2], 22%; in series [4], 6%; in series [5] it was 11%. In series [3], this compound came in with an IC50 of 56.4 µM.

`Cc1ccc(-c2csc3ncn4c(=O)c5cc(Br)cc(Br)c5nc4c23)cc1`: the inhibition in vivo at 50 mg/kg in series [1] was determined as 37%; in series [2], 33%; in series [4], 22%; in series [5] it was 20%. This compound also yielded an IC50 in series [3] of 61.9 µM.

With `O=c1c2cc(Br)cc(Br)c2nc2c3c4c(sc3ncn12)CCCC4`, the inhibition in vivo at 50 mg/kg in series [1] turned out to be 21%; in series [2], 15%; in series [4] it was 4%; in series [5], 5%. The compound also showed an IC50 in series [3] of 104 µM.

Consider `O=c1c2cc(Br)cc(Br)c2nc2c3c(-c4ccccc4)cc(-c4ccc(Cl)cc4)nc3ncn12`, for which the inhibition in vivo at 50 mg/kg turned out to be 47% in series [1], 42% in series [2], 30% in series [4] and 28% in series [5]. In series [3], this compound yielded an IC50 of 78 µM.

Turning to `O=c1c2cc(Br)ccc2nc2c3c(-c4ccc([N+](=O)[O-])cc4)cc(-c4ccc([N+](=O)[O-])cc4)nc3ncn12`, the inhibition in vivo at 50 mg/kg in series [1] was found to be 28%; in series [2], 22%; in series [4], 11%; in series [5] it was 10%. For the same compound, in series [3], it took 101 µM to reach half-maximal inhibition (IC50).

Turning to `O=c1c2ccccc2nc2c3c(-c4ccc([N+](=O)[O-])cc4)cc(-c4ccc([N+](=O)[O-])cc4)nc3ncn12`, the inhibition in vivo at 50 mg/kg stood at 23% in series [1], 11% in series [2], 11% in series [4] and 5% in series [5]. This compound had a half-inhibitory concentration (IC50) in series [3] of 83.7 µM.

By inhibition in vivo is commonly meant the change of the read-out against control, counted positive when it falls. One may read the IC50 as the concentration at which inhibition is half-maximal. A lower IC50 goes with greater potency.
